Test results reported in paper PMC6162288, “On-chip spatiotemporal electrophysiological analysis of human stem cell derived cardiomyocytes enables quantitative assessment of proarrhythmia in drug development” (Scientific Reports, 2018).
Several values for one entry are separate records, joined by “and”; a condition that tells them apart may be missing. Identical values can stand only once. Entries after “also recorded” stand apart in the source; their conditions may differ. Like-named read-outs stand apart in the source and are kept apart here.

Experiments:
lined-up hESC-CMs = experiment: MEA field potential recording of lined-up hESC-CMs (cFPD, CT, their STVs, ISI, beat rate, arrest); assay type: cell-based, human
Procedure: Human embryonic stem cell-derived cardiomyocytes clusters (hES-CMCs) were shipped from Cellectis (hES-CMCTM002, hES cell line SA002, Gothenburg, Sweden)[42],[43], and maintained in Dulbecco’s modified Eagle’s medium (DMEM) supplemented 20% heat-inactivated fetal bovaine serum, 1 mM GlutaMax, 100 U/mL penicillin, 0.1 mg/mL streptomycin, 1% nonessential amino acids and 0.1 mM β-mercaptoethanol (Invitrogen, Carsbad, CA, USA). Dispersed cardiomyocytes were isolated from hES-CMCs by a modification of the methods of Norström et al.[44]–[48]. […] The supernatant was gently aspirated with pipette, and a 5-hold volume of DMEM was added as stop solution. Remaining clusters were treats ed with the above process with several times. The supernatants were collected and centrifuged with 200 × g for 2–3 min at 4 °C. The resulting supernatant including dispersed cells was seeded into agarose microchambers on an MEA chip (MED-P530A; AlphaMED scientific. Co. Ltd., Japan)[40].
The MEA chip surface was prepared as follows. First, the chip surface was coated with collagen type I-C (Nitta Gelatin, Japan). After drying, the chip surface was coated with a 0.1% agarose gel. […] At >30 min before the start of experiment, the medium was changed to 2 mL pre-warmed fresh maintenance medium per chip.
Extracellular potential recordings of the lined-up hESC-CMs were performed using the MEA system at a sampling rate of 10 kHz with a low path filter of 2 kHz and high path filter of 1 Hz, and signals were amplified by 100–50,000 using the amplifier. The MEA chip with lined-up hESC-CMs was set in the FP measurement device and placed in a humidified cell culture incubator at 37 °C, 5% CO2. The signals were analyzed by Igor Pro 6.0 (WaveMetrics, Inc., USA) and FlexPro 7.0 (Weisang GmbH, Germany).
We adopted the same drug administration protocol as we examined previously[40] (Fig. 2B). Briefly, the MEA chips of lined-up cells for experiments were selected from the chips having 0.6–1.1 Hz beating frequency and ventricle-like waveforms of FP recordings (see Fig. 1B,D). The MEA chip was placed in the holder of the FP measurement device, and equilibrated for 5 min, and then the control FP waveforms were recorded for 10 min. Subsequently, the drug was applied to the medium at 1% dilution in serially increasing additions, and the FP waveforms were recorded for 10 min at each concentration. Finally, the drug-containing medium was replaced with fresh medium after washing three times. The last 50 beats extracted from 10 min recorded FP waveform data was used for beat rate, FPD (the time from first depolarization peak to broad repolarization peak) and CT (the time difference of the first peaks between separately placed electrodes in lined-upped cell-network) measurement at each concentration (Fig. 2C).
It was normalized (cFPD) to the beating rate of cardiomyocytes using Bazett’s correction formula based on the comparison of the slope of a plot of inter-spike interval and FPD, or corrected FPD by Bazett’s or Fridericia’s formulae (Fig. 3). The short-term variability (STV) of cFPD and CT, which was defined as the mean distance of points perpendicular to the line of identity in the Poincaré plot, was calculated ( STV=∑|D(n+1)−Dn|/(n×2) , where Dn represents the FPD and CT of n-th beating). STVs were last 50 beat data from 5 min extraction of cFPD and CT. To assess the arrhythmogenicity risk of test drugs, the mean values of cFPD, STVcFPD, CT and STVCT of each drug were plotted.

hERG = conditions: read-out: IC50 hERG; cited from earlier work
Nav1.5 = conditions: cited from earlier work
Cav1.2 = conditions: cited from earlier work
[1] = Conc. 10^2 nM (0.1 μM), change vs Ctrl.
[2] = Conc. 10^3 nM (1 μM), change vs Ctrl.
[3] = Conc. 10^−1 nM, change vs Ctrl.
[4] = Conc. 10^4 nM (10 μM), change vs Ctrl.
[5] = Conc. 10^5 nM (100 μM), change vs Ctrl.

Cc1cccc(CCN2CCC(C(=O)c3ccc(NS(C)(=O)=O)cc3)CC2)n1 [E-4031]
STVcFPD (lined-up hESC-CMs; 1 μM): more than doubled
BR (beat rate) (lined-up hESC-CMs; Conc. 1 nM, change vs Ctrl.): 3.9%
Cond. Time (CT) (lined-up hESC-CMs; Conc. 1 nM, change vs Ctrl.): −4.3%
ISI (inter-spike interval) (lined-up hESC-CMs; Conc. 1 nM, change vs Ctrl.): −3.7%
STVCT (lined-up hESC-CMs; Conc. 1 nM, change vs Ctrl.): 19%
STVcFPD (lined-up hESC-CMs; Conc. 1 nM, change vs Ctrl.): −3.6%
cFPD (lined-up hESC-CMs; Conc. 1 nM, change vs Ctrl.): 0.69%
BR (beat rate) (lined-up hESC-CMs; Conc. 10 nM, change vs Ctrl.): 4.5%
Cond. Time (CT) (lined-up hESC-CMs; Conc. 10 nM, change vs Ctrl.): 2.1%
ISI (inter-spike interval) (lined-up hESC-CMs; Conc. 10 nM, change vs Ctrl.): −4.2%
STVCT (lined-up hESC-CMs; Conc. 10 nM, change vs Ctrl.): 5.7%
STVcFPD (lined-up hESC-CMs; Conc. 10 nM, change vs Ctrl.): 17%
cFPD (lined-up hESC-CMs; Conc. 10 nM, change vs Ctrl.): 7.1%
Cond. Time (CT) (lined-up hESC-CMs; [1]): 10%
STVCT (lined-up hESC-CMs; [1]): 43%
STVcFPD (lined-up hESC-CMs; [1]): 94%
cFPD (lined-up hESC-CMs; [1]): 30%
cFPD (lined-up hESC-CMs; Conc. 10^2 nM (0.1 μM), change vs Ctrl., listed as E-4301): 30%
BR (beat rate) (lined-up hESC-CMs; Conc. 10^2 nM, change vs Ctrl.): 5.1%
ISI (inter-spike interval) (lined-up hESC-CMs; Conc. 10^2 nM, change vs Ctrl.): −4.7%
Cond. Time (CT) (lined-up hESC-CMs; [2]): 49%
STVcFPD (lined-up hESC-CMs; [2]): 110%
cFPD (lined-up hESC-CMs; [2]): 47%
cFPD (lined-up hESC-CMs; Conc. 10^3 nM (1 μM), change vs Ctrl., listed as E-4301): 47%
BR (beat rate) (lined-up hESC-CMs; Conc. 10^3 nM, change vs Ctrl.): 5.8%
ISI (inter-spike interval) (lined-up hESC-CMs; Conc. 10^3 nM, change vs Ctrl.): −5.1%
BR (beat rate) (lined-up hESC-CMs; [3]): 2.6%
ISI (inter-spike interval) (lined-up hESC-CMs; [3]): −2.5%
STVCT (lined-up hESC-CMs; [3]): 52%
STVcFPD (lined-up hESC-CMs; [3]): 2.9%
cFPD (lined-up hESC-CMs; [3]): 0.52%
Cond. Time (CT) (lined-up hESC-CMs; Conc. 10^−1 nM, change vs Ctrl., 150 μm inter-electrode distance): 8.9%
CT (mean conduction time) (lined-up hESC-CMs; any tested concentration): did not significantly change; also recorded: did not increase

O=C(NCC1CCCCN1)c1cc(OCC(F)(F)F)ccc1OCC(F)(F)F (stereo not drawn) [Flecainide, flecainide]
STVcFPD increase (lined-up hESC-CMs; 10–100 μM): about 50%
BR (beat rate) (lined-up hESC-CMs; Conc. 10 nM, change vs Ctrl.): 2.6%
Cond. Time (CT) (lined-up hESC-CMs; Conc. 10 nM, change vs Ctrl.): −3.2%
ISI (inter-spike interval) (lined-up hESC-CMs; Conc. 10 nM, change vs Ctrl.): −2.5%
STVCT (lined-up hESC-CMs; Conc. 10 nM, change vs Ctrl.): 7.0%
cFPD (lined-up hESC-CMs; Conc. 10 nM, change vs Ctrl.): 0.13%
Cond. Time (CT) (lined-up hESC-CMs; [1]): 12%
STVCT (lined-up hESC-CMs; [1]): 61%
STVcFPD (lined-up hESC-CMs; [1]): −16%
cFPD (lined-up hESC-CMs; [1]): 3.4%
BR (beat rate) (lined-up hESC-CMs; Conc. 10^2 nM, change vs Ctrl.): 3.9%
ISI (inter-spike interval) (lined-up hESC-CMs; Conc. 10^2 nM, change vs Ctrl.): −3.7%
Cond. Time (CT) (lined-up hESC-CMs; [2]): −0.65%
STVCT (lined-up hESC-CMs; [2]): 36%
STVcFPD (lined-up hESC-CMs; [2]): 0.32%
cFPD (lined-up hESC-CMs; [2]): 1.8%
BR (beat rate) (lined-up hESC-CMs; Conc. 10^3 nM, change vs Ctrl.): 4.5%
ISI (inter-spike interval) (lined-up hESC-CMs; Conc. 10^3 nM, change vs Ctrl.): −4.2%
Cond. Time (CT) (lined-up hESC-CMs; [4]): 64% and 65%
STVCT (lined-up hESC-CMs; [4]): 288%
STVcFPD (lined-up hESC-CMs; [4]): 41%
cFPD (lined-up hESC-CMs; [4]): 0.11%
STVCT (lined-up hESC-CMs; Conc. 10^4 nM (10 μM), change vs Ctrl., listed as flecainide): 287%
BR (beat rate) (lined-up hESC-CMs; Conc. 10^4 nM, change vs Ctrl.): 5.1%
ISI (inter-spike interval) (lined-up hESC-CMs; Conc. 10^4 nM, change vs Ctrl.): −4.7%
Cond. Time (CT) (lined-up hESC-CMs; [5]): −3.6%
STVCT (lined-up hESC-CMs; [5]): 263%
STVcFPD (lined-up hESC-CMs; [5]): 54%
cFPD (lined-up hESC-CMs; [5]): −14%
Arrest (lined-up hESC-CMs; Conc. 10^5 nM, arrest cases/chips): 1/4
BR (beat rate) (lined-up hESC-CMs; Conc. 10^5 nM, change vs Ctrl.): 5.8%
ISI (inter-spike interval) (lined-up hESC-CMs; Conc. 10^5 nM, change vs Ctrl.): −5.1%
CT (lined-up hESC-CMs; at equivalent concentrations of Nav1.5 IC50): increased
FPD (lined-up hESC-CMs; up to 100 μM): did not show FPD prolongation
IC50 (hERG): 1.8 µM
IC50 (Nav1.5; read-out: IC50 Nav1.5): 34 µM
IC50 (Nav1.5; ref Table 1, read-out: Nav1.5 IC50): ~34 µM
IC50 (Cav1.2; read-out: Cav1.2 IC50, ref Table 1): 56 µM
IC50 (Cav1.2; read-out: IC50 Cav1.2): 55.9 µM
